Laboratory results as given in ChEMBL document CHEMBL5257080, “Optimization of physicochemical properties of pyrrolidine GPR40 AgoPAMs results in a differentiated profile with improved pharmacokinetics and reduced off-target activities” (Bioorg Med Chem, 2023).
In brackets after ≈: the same amount, converted by molar mass. Activity calls are given as the source filed them. The calls are words filed in the database; no cut-off is given here.

How the values were obtained:
[1] = AUC (0 to 24 hrs) in rat at 400 mg/kg bid; assay type: ADME, organism-based; design: dose 400 mg/kg; details: in vivo
[2] = Tmax in rat at 40 mg/kg bid; assay type: ADME, organism-based; details: in vivo
[3] = Toxicity in Sprague-Dawley rat assessed as effect on pancrease at AUC measured for 1 months; details: in vivo, 730 h
[4] = molecular target: Cytochrome P450 2C19 (Homo sapiens, UniProt P33261); assay: Inhibition of CYP2C19 in human liver microsomes; assay type: ADME, Microsome
Cytochrome P450 2C19, sequence (P33261 whole entry): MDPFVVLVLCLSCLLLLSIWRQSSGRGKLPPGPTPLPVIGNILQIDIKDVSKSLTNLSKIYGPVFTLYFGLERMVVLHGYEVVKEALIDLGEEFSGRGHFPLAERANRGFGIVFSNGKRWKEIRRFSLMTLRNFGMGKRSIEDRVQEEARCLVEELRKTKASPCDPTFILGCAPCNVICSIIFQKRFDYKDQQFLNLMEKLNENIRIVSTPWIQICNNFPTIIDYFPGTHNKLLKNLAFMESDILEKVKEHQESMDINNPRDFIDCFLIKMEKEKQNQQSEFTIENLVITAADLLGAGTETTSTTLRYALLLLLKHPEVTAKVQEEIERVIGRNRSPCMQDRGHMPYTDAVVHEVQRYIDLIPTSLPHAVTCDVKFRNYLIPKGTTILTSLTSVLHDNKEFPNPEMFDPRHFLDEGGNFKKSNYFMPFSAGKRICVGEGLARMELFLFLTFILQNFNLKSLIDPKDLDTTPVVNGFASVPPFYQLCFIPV

[5] = molecular target: T1, Cytochrome P450 2B6 (Homo sapiens, UniProt P20813); assay: Inhibition of CYP2B6 in human liver microsomes; assay type: ADME, Microsome
T1 sequence (P20813 whole entry): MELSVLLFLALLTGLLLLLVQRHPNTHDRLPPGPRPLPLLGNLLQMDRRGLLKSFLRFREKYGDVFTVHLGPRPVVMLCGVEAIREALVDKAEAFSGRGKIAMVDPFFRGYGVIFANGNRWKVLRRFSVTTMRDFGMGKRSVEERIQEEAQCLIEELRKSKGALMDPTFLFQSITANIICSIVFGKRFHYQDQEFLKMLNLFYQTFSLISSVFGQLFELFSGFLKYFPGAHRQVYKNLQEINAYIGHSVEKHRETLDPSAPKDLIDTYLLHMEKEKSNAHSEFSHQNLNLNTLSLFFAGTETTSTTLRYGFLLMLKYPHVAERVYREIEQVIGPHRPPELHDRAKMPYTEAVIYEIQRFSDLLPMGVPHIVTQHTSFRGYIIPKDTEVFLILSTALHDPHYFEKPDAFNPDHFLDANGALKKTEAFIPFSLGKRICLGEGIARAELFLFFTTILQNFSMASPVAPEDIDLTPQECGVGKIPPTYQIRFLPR

[6] = Cmax in rat at 40 mg/kg bid; assay type: ADME, organism-based; design: dose 40 mg/kg; details: in vivo
[7] = Toxicity in cynomolgus monkey assessed as effect on pancrease at 30 mg/kg, po measured for 1 months; assay type: organism-based, Macaca fascicularis; details: in vivo, 730 h
[8] = molecular target: T2, Cytochrome P450 2C8 (Homo sapiens, UniProt P10632); assay: Inhibition of CYP2C8 in human liver microsomes; assay type: ADME, Microsome
T2 sequence (P10632 whole entry): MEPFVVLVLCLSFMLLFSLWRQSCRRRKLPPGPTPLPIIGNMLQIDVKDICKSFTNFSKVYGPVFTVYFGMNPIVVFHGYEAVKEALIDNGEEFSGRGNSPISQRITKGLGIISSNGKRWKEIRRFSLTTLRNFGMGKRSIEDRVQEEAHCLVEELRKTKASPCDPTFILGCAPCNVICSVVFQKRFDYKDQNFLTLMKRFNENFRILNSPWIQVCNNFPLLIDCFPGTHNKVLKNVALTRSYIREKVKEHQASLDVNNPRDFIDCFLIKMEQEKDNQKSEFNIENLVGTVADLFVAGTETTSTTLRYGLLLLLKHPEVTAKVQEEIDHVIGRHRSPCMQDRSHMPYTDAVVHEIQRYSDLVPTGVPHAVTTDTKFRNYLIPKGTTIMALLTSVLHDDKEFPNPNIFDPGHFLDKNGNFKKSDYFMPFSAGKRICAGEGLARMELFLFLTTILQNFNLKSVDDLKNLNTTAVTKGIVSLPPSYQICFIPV

[9] = molecular target: Free fatty acid receptor 1 (Homo sapiens, UniProt O14842); assay: Positive allosteric modulation of human GPR40 expressed in HEK293 cells assessed as cAMP accumulation; assay type: cell-based
Free fatty acid receptor 1, sequence (O14842 whole entry): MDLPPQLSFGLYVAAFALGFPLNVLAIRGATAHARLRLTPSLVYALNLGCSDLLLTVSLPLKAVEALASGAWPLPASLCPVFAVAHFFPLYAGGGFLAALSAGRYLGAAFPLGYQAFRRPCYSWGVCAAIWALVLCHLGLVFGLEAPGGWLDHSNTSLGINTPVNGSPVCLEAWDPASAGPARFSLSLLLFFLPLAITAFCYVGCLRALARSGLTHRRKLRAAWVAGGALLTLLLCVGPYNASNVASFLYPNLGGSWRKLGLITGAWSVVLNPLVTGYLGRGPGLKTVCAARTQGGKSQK

[10] = Solubility of the compound in FeSSIF at pH 5; assay type: ADME
[11] = molecular target: Cytochrome P450 2C9 (Homo sapiens, UniProt P11712); assay: Inhibition of CYP2C9 in human liver microsomes; assay type: ADME, Microsome
Cytochrome P450 2C9, sequence (P11712 whole entry): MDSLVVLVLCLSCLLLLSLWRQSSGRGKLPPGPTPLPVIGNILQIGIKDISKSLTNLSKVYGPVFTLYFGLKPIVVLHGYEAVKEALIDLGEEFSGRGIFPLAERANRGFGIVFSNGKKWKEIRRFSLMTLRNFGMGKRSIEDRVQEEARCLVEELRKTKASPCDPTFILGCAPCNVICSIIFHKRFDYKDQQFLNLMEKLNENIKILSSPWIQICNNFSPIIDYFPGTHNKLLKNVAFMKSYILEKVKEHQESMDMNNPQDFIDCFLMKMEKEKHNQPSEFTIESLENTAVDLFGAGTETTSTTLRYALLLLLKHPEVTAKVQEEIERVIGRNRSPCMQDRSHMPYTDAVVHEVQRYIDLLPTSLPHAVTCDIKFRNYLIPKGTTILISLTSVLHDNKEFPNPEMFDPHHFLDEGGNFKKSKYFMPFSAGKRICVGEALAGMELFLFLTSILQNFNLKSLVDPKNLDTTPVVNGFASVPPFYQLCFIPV

[12] = test system: Rattus norvegicus; assay: Hyperglycemic activity in Sprague-Dawley rat assessed as effect on blood glucose level at 150 mg/kg, qd by glucometer; assay type: functional, organism-based
[13] = AUC (0 to 24 hrs) in rat at 40 mg/kg bid; assay type: ADME, organism-based; design: dose 40 mg/kg; details: in vivo
[14] = Toxicity in Sprague-Dawley rat assessed as effect on pancrease at 300 mg/kg, po measured for 1 months; assay type: organism-based; details: in vivo, 730 h
[15] = Toxicity in rat assessed as NOAEL by measuring AUC (0 to 24 hrs) measured for 28 days; details: in vivo, time 28 day
[16] = Toxicity in Sprague-Dawley rat assessed as decrease in islet number at 300 mg/kg, po measured for 1 months; assay type: organism-based; details: in vivo, 730 h
[17] = AUC (0 to 24 hrs) in rat at 160 mg/kg bid; assay type: ADME, organism-based; design: dose 160 mg/kg; details: in vivo
[18] = Solubility in phosphate buffer at pH 6.5; assay type: physicochemical
[19] = Tmax in rat at 160 mg/kg bid; assay type: ADME, organism-based; details: in vivo
[20] = molecular target: Cytochrome P450 3A4 (Homo sapiens, UniProt P08684); assay: Inhibition of CYP3A4 in human liver microsomes; assay type: ADME, Microsome
Cytochrome P450 3A4, sequence (P08684 whole entry): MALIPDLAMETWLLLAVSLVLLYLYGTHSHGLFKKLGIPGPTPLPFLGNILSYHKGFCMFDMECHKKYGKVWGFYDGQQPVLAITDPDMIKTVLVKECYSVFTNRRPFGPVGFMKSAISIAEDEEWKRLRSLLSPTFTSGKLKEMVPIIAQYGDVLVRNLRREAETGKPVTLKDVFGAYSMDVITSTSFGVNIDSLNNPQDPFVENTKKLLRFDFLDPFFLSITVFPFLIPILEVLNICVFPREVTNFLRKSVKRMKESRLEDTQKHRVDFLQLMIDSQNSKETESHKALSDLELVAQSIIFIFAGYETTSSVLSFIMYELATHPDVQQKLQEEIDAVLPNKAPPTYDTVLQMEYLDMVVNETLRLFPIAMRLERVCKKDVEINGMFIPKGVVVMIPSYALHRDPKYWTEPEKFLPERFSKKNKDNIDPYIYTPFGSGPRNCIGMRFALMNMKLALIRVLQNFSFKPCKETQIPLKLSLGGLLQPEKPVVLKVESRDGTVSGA

[21] = Cmax in rat at 160 mg/kg bid; assay type: ADME, organism-based; design: dose 160 mg/kg; details: in vivo
[22] = Toxicity in Sprague-Dawley rat assessed as islet cell cytoplasmic alteration at 60 mg/kg, po measured for 1 months; assay type: organism-based; details: in vivo, 730 h
[23] = Cmax in rat at 400 mg/kg bid; assay type: ADME, organism-based; design: dose 400 mg/kg; details: in vivo
[24] = Solubility of the compound in FaSSIF at pH 6.5; assay type: ADME
[25] = Tmax in rat at 400 mg/kg bid; assay type: ADME, organism-based; details: in vivo
[26] = Toxicity in Sprague-Dawley rat assessed as decrease in islet size at 300 mg/kg, po measured for 1 months; assay type: organism-based; design: scale not given: the % may be the effect or the level left; details: in vivo, 730 h
[27] = molecular target: Cytochrome P450 2D6 (Homo sapiens, UniProt P10635); assay: Inhibition of CYP2D6 in human liver microsomes; assay type: ADME, Microsome
Cytochrome P450 2D6, sequence (P10635 whole entry): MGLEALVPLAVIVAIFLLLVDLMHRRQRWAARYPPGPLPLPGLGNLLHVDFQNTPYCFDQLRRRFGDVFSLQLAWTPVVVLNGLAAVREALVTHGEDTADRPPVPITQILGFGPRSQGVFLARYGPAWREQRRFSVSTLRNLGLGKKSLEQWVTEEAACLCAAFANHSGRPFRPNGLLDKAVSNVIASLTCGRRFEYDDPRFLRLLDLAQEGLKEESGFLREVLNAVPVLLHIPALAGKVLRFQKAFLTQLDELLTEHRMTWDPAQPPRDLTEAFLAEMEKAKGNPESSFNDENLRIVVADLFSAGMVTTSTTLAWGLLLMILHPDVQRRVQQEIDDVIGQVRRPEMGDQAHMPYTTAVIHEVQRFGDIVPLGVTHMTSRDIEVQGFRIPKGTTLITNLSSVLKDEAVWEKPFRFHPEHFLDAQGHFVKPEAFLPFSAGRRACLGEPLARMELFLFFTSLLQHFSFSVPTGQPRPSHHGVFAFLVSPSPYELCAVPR

[28] = AUC (0 to 24 hrs) in rat at 150 mg/kg, po bid; assay type: ADME, organism-based; design: dose 150 mg/kg, route po; details: in vivo
[29] = Solubility of the compound in FeSSIF at pH 6.5; assay type: ADME
[30] = Permeability of compound across apical to basolateral side in dog MDCK cells; assay type: ADME, cell-based, Canis lupus familiaris; details: read-out: permeability
[31] = test system: Rattus norvegicus; assay: Anti-hyperglycemic activity against Sprague-Dawley rat assessed as reduction in plasma glucose AUC at 0.3 mg/kg, po measured for 20 to 120 mins by OGTT analysis; assay type: functional, organism-based; details: time lower 20.0 min, time upper […]

Compound: COc1cc(N2CC[C@@H](Oc3ccc(N4N=C(C(F)(F)F)[C@@H](C)[C@@H]4CC(=O)O)cc3)[C@H](C)C2)c(Cl)cn1
- AUC [1]: 3370 µM·h
- Tmax [2]: 8 h
- Activity [3]: Non-Toxic
- IC50 [4]: 38 µM
- IC50 [5]: 8.1 µM
- Cmax [6]: 64 µM
- Activity [7]: Non-Toxic
- IC50 [8]: 1.7 µM
- EC50 [9]: 3.6 µM
- solubility [10]: 8 µg/mL (≈ 14.8 µM)
- IC50 [11]: 14 µM
- Activity [12]: Active
- AUC [13]: 549 µM·h
- Activity [14]: Non-Toxic
- AUC at […] [15]: 404 µM·h
- Activity [16]: Toxic
- AUC [17]: 1100 µM·h
- solubility [18]: 1 µg/mL (≈ 1.85 µM)
- Tmax [19]: 8 h
- IC50 [20]: 3.4 µM
- Cmax [21]: 106 µM
- Activity [22]: Toxic
- Cmax [23]: 271 µM
- solubility [24]: 9 µg/mL (≈ 16.6 µM)
- Tmax [25]: 8 h
- Activity [26]: 50%
- IC50 [27]: 40 µM
- AUC [28]: 557 µM·h
- solubility [29]: 59 µg/mL (≈ 109 µM)
- Papp A→B [30]: 142 nm/s
- Activity [31]: inactive
